According to US20230286948A1 (HUYABIO International, LLC, priority 2022, published 2023):

Tested on: MV-411 cells
Assay: Anti-proliferative activity against MV-411 leukemia cells (CellTiterGlo viability, 72 h)
Type: cell-based
Conditions: Homo sapiens, MV4-11, 72 h, MV-411 human acute monocytic leukemia cells, a second value in parentheses is a further determination
Method: Procedure: MV-411 cells were seeded into 384 well plates at 2000 cells/well density in 50 μL total volume, according to plate map and were allowed to naturally sediment by waiting about 30 min on a Clean Bench. Next, plated cells were centrifuged for 1 min at 1000 rpm and the excess cells were transferred into the flasks for further culture. Cells in the assay plates were incubated (at least 4 hrs.) at 37° C., 5% CO2 followed by adding the compounds as the plate map indicated. The tests were performed in duplicates with treatment of compounds at 10 pts 3-fold titration in 384 well plates. Taxol was used as positive control while DMSO as negative control. To rule out edge effect, the wells on the edge were not seeded and therefore one 384 well plate holds 13 compounds. Cells viability was measured 72h after incubation with compounds using CellTiterGlo (promega) viability assay according to manufacturer's instruction to check the ATP production in each well.
Experiments on anti-proliferative activity against leukemia cells were conducted with some of the compounds of the invention.

Compound | GI50 [µM]
COc1cc(C(F)(F)F)c(C(=O)Nc2cc(-n3cc(C(=O)NCCCN4CCOCC4)nn3)ccc2N2CCN(C)CC2)cn1 [Compound 16] | 51.9
CN1CCN(c2cc(F)c(-n3cc(C(=O)NCCCN4CCOCC4)nn3)cc2NC(=O)c2c[nH]c(=O)cc2C(F)(F)F)CC1 [Compound 8] | > 200
COc1ccc(C(=O)Nc2cc(-n3cc(C(=O)NCCCN4CCOCC4)nn3)ccc2N2CCN(C)CC2)c(C(F)(F)F)n1 [Compound 38] | 67.9
CN1CCN(c2ccc(-n3cc(C(=O)NCCCN4CCOCC4)nn3)cc2NC(=O)c2cnc(C#N)cc2N(C)C)CC1 [Compound 23] | 196
CN1CCN(c2ccc(-n3cc(C(=O)NCCCN4CCOCC4)nn3)cc2NC(=O)c2cnc(C(F)F)cc2Cl)CC1 [Compound 22] | 39.7
COc1cc(C(F)(F)F)c(C(=O)Nc2cc(-n3cc(C(=O)NCCCN4CCOCC4)nn3)c(F)cc2N2C[C@@H](C)N(C)[C@@H](C)C2)cn1 [Compound 55] | 27.8
C[C@@H]1CN(c2cc(F)c(-n3cc(C(=O)NC4CCN(C)CC4)nn3)cc2NC(=O)c2cnc(C(F)(F)F)cc2Cl)C[C@H](C)N1C [Compound 58] | 0.68
COc1cnc(C(=O)Nc2cc(-n3cc(C(=O)NCCCN4CCOCC4)nn3)ccc2N2CCN(C)CC2)c(Cl)n1 [Compound 35] | 2.42
CN1CCN(c2ccc(-n3cc(C(=O)NCCCN4CCOCC4)nn3)cc2NC(=O)c2ccc(Cl)nc2C(F)(F)F)CC1 [Compound 37] | 44.3
COc1nc(SC)ncc1C(=O)Nc1cc(-n2cc(C(=O)NCCCN3CCOCC3)nn2)ccc1N1CCN(C)CC1 [Compound 30] | 12.2
CN1CCN(c2ccc(-n3cc(C(=O)NCCCN4CCOCC4)nn3)cc2NC(=O)c2cnc(Cl)cc2Cl)CC1 [Compound 19] | 0.91
C[C@@H]1CN(c2cc(F)c(-n3cc(C(=O)N4CCN(C)CC4)nn3)cc2NC(=O)c2cnc(Cl)cc2C(F)(F)F)C[C@H](C)N1C [Compound 51] | 1.14
CN1CCN(c2ccc(-n3cc(C(=O)NCCCN4CCOCC4)nn3)cc2NC(=O)c2ccc(S(C)(=O)=O)nc2C(F)(F)F)CC1 [Compound 44] | 49.9
COc1ccc(CNc2ccc(C(=O)Nc3cc(-n4cc(C(=O)NCCCN5CCOCC5)nn4)ccc3N3CCN(C)CC3)c(C(F)(F)F)n2)cc1 [Compound 42] | 3.17
Cc1c(Cl)ncc(C(=O)Nc2cc(-n3cc(C(=O)NCCCN4CCOCC4)nn3)ccc2N2CCN(C)CC2)c1Cl [Compound 21] | 2.5
C[C@@H]1CN(c2cc(F)c(-n3cc(C(=O)N4CCN(C)CC4)nn3)cc2NC(=O)c2cnc(Cl)cc2Cl)C[C@H](C)N1C [Compound 57] | 0.74
C[C@@H]1CN(c2cc(F)c(-n3cc(C(=O)NCCCN4CCOCC4)nn3)cc2NC(=O)c2cnc(Cl)cc2C(F)(F)F)C[C@H](C)N1C [Compound 5] | 7.26
CN1CCN(c2ccc(-n3cc(C(=O)NCCCN4CCOCC4)nn3)cc2NC(=O)c2ncc(N)cn2)CC1 [Compound 45] | 11.2
CN1CCN(c2ccc(-n3cc(C(=O)NCCCN4CCOCC4)nn3)cc2NC(=O)c2c[nH]c(=O)cc2C(F)(F)F)CC1 [Compound 4] | > 200
CN1CCN(c2ccc(-n3cc(C(=O)NCCCN4CCOCC4)nn3)cc2NC(=O)c2cnc(S(C)(=O)=O)cc2C(F)(F)F)CC1 [Compound 15] | > 237
Cc1cc(C(F)(F)F)c(C(=O)Nc2cc(-n3cc(C(=O)NCCCN4CCOCC4)nn3)ccc2N2CCN(C)CC2)cn1 [Compound 12] | 60.1
CCN(CC)C(=O)c1cn(-c2cc(NC(=O)c3cnc(Cl)cc3Cl)c(N3C[C@@H](C)N(C)[C@@H](C)C3)cc2F)nn1 [Compound 56] | 1.17
CN1CCN(c2ccc(-n3cc(C(=O)NCCCN4CCOCC4)nn3)cc2NC(=O)c2cnc(C(F)(F)F)cc2Cl)CC1 [Compound 20] | 2.86
CCN(CC)C(=O)c1cn(-c2cc(NC(=O)c3cnc(F)cc3C(F)(F)F)c(N3C[C@@H](C)N(C)[C@@H](C)C3)cc2F)nn1 [Compound 53] | 0.9
C[C@H]1CN(c2ccc(-n3cc(C(=O)NCCCN4CCOCC4)nn3)cc2NC(=O)c2c[nH]c(=O)cc2C(F)(F)F)CCN1C [Compound 10] | > 200
C[C@@H]1CN(c2ccc(-n3cc(C(=O)NCCCN4CCOCC4)nn3)cc2NC(=O)c2c[nH]c(=O)cc2C(F)(F)F)C[C@H](C)N1C [Compound 2] | > 200

Compound | GI50 [µM]
CN1CCN(c2ccc(-n3cc(C(=O)NCCCN4CCOCC4)nn3)cc2NC(=O)c2ccc(Cl)cc2C(F)(F)F)CC1 [Compound 46] | 22.4
CSc1ccc(C(=O)Nc2cc(-n3cc(C(=O)NCCCN4CCOCC4)nn3)ccc2N2CCN(C)CC2)c(C(F)(F)F)n1 [Compound 43] | 19.9
Cc1cc(Cl)c(C(=O)Nc2cc(-n3cc(C(=O)NCCCN4CCOCC4)nn3)ccc2N2CCN(C)CC2)cc1N [Compound 49] | 27.7
CCOc1ncc(C(=O)Nc2cc(-n3cc(C(=O)NCCCN4CCOCC4)nn3)ccc2N2CCN(C)CC2)c(C(F)(F)F)n1 [Compound 29] | 18.4
CN1CCN(c2ccc(-n3cc(C(=O)NCCCN4CCOCC4)nn3)cc2NC(=O)c2cnc(N)cc2C(F)(F)F)CC1 [Compound 18] | 42.7
CSc1cc(C(F)(F)F)c(C(=O)Nc2cc(-n3cc(C(=O)NCCCN4CCOCC4)nn3)ccc2N2CCN(C)CC2)cn1 [Compound 14] | 25.3
Cc1ncc(C(=O)Nc2cc(-n3cc(C(=O)NCCCN4CCOCC4)nn3)ccc2N2CCN(C)CC2)c(C(F)(F)F)n1 [Compound 26] | 75.2
Cc1cc(N)ncc1C(=O)Nc1cc(-n2cc(C(=O)NCCCN3CCOCC3)nn2)ccc1N1CCN(C)CC1 [Compound 24] | > 200
CN1CCN(c2ccc(-n3cc(C(=O)NCCCN4CCOCC4)nn3)cc2NC(=O)c2ccc(C#N)nc2C(F)(F)F)CC1 [Compound 39] | 20.2
CN1CCN(c2ccc(-n3cc(C(=O)NCCCN4CCOCC4)nn3)cc2NC(=O)c2ncc(Cl)nc2Cl)CC1 [Compound 34] | 0.37
Cc1nc(C(F)(F)F)ncc1C(=O)Nc1cc(-n2cc(C(=O)NCCCN3CCOCC3)nn2)ccc1N1CCN(C)CC1 [Compound 31] | 106
C[C@@H]1CN(c2cc(F)c(-n3cc(C(=O)NC4CCN(C)CC4)nn3)cc2NC(=O)c2cnc(Cl)cc2C(F)(F)F)C[C@H](C)N1C [Compound 52] | 1.22
CN1CCN(c2ccc(-n3cc(C(=O)NCCCN4CCOCC4)nn3)cc2NC(=O)c2ccc(N)nc2C(F)(F)F)CC1 [Compound 41] | 108
COc1cnc(C(=O)Nc2cc(-n3cc(C(=O)NCCCN4CCOCC4)nn3)ccc2N2CCN(C)CC2)c(OC)n1 [Compound 36] | 28.2
CN1CCN(c2ccc(-n3cc(C(=O)NCCCN4CCOCC4)nn3)cc2NC(=O)c2cnc([S+](C)[O-])nc2C(F)(F)F)CC1 (stereo not shown) [Compound 28] | > 200
CN1CCN(c2ccc(-n3cc(C(=O)NCCCN4CCOCC4)nn3)cc2NC(=O)c2ccc(C(N)=O)nc2C(F)(F)F)CC1 [Compound 40] | > 200
C[C@@H]1CN(c2ccc(-n3cc(C(=O)NCCCN4CCOCC4)nn3)cc2NC(=O)c2cnc(Cl)cc2C(F)(F)F)C[C@H](C)N1C [Compound 1] | 1.38
COc1cc(C(F)(F)F)c(C(=O)Nc2cc(-n3cc(C(=O)NC4CCN(C)CC4)nn3)c(F)cc2N2C[C@@H](C)N(C)[C@@H](C)C2)cn1 [Compound 54] | 14.3
CN1CCN(c2ccc(-n3cc(C(=O)NCCCN4CCOCC4)nn3)cc2NC(=O)c2cnc(F)cc2C(F)(F)F)CC1 [Compound 11] | 2.14
CSc1ncc(C(=O)Nc2cc(-n3cc(C(=O)NCCCN4CCOCC4)nn3)ccc2N2CCN(C)CC2)c(C(F)(F)F)n1 [Compound 27] | 18.5
CCN(CC)C(=O)c1cn(-c2cc(NC(=O)c3cnc(Cl)cc3C(F)(F)F)c(N3C[C@@H](C)N(C)[C@@H](C)C3)cc2F)nn1 [Compound 50] | 0.49
CN1CCN(c2ccc(-n3cc(C(=O)NCCCN4CCOCC4)nn3)cc2NC(=O)c2nnc(Cl)cc2N)CC1 [Compound 33] | 35.3
Cc1cc(F)ncc1C(=O)Nc1cc(-n2cc(C(=O)NCCCN3CCOCC3)nn2)ccc1N1CCN(C)CC1 [Compound 25] | 146
CN1CCN(c2ccc(-n3cc(C(=O)NCCCN4CCOCC4)nn3)cc2NC(=O)c2cnc(C#N)cc2C(F)(F)F)CC1 [Compound 13] | 21.8
CN1CCN(c2ccc(-n3cc(C(=O)NCCCN4CCOCC4)nn3)cc2NC(=O)c2nnc(Cl)cc2Cl)CC1 [Compound 32] | 1.24
C[C@@H]1CN(c2cc(F)c(-n3cc(C(=O)NCCCN4CCOCC4)nn3)cc2NC(=O)c2c[nH]c(=O)cc2C(F)(F)F)C[C@H](C)N1C [Compound 6] | > 200

Same assay, conditions: MV-411 human acute monocytic leukemia cells, a second value in parentheses is a further determination

Compound | GI50 [µM]
CN1CCN(c2ccc(-n3cc(C(=O)NCCCN4CCOCC4)nn3)cc2NC(=O)c2ccc(Cl)nc2C(F)(F)F)CC1 [Compound 37] | 46.2
CN1CCN(c2ccc(-n3cc(C(=O)NCCCN4CCOCC4)nn3)cc2NC(=O)c2cnc(Cl)cc2Cl)CC1 [Compound 19] | 0.94
Cc1c(Cl)ncc(C(=O)Nc2cc(-n3cc(C(=O)NCCCN4CCOCC4)nn3)ccc2N2CCN(C)CC2)c1Cl [Compound 21] | 2.33
Cc1cc(C(F)(F)F)c(C(=O)Nc2cc(-n3cc(C(=O)NCCCN4CCOCC4)nn3)ccc2N2CCN(C)CC2)cn1 [Compound 12] | 88.8
CN1CCN(c2ccc(-n3cc(C(=O)NCCCN4CCOCC4)nn3)cc2NC(=O)c2cnc(C(F)(F)F)cc2Cl)CC1 [Compound 20] | 3.19
CSc1cc(C(F)(F)F)c(C(=O)Nc2cc(-n3cc(C(=O)NCCCN4CCOCC4)nn3)ccc2N2CCN(C)CC2)cn1 [Compound 14] | 21.4
Cc1ncc(C(=O)Nc2cc(-n3cc(C(=O)NCCCN4CCOCC4)nn3)ccc2N2CCN(C)CC2)c(C(F)(F)F)n1 [Compound 26] | 61.7
CN1CCN(c2ccc(-n3cc(C(=O)NCCCN4CCOCC4)nn3)cc2NC(=O)c2cnc(F)cc2C(F)(F)F)CC1 [Compound 11] | 2.01
CN1CCN(c2ccc(-n3cc(C(=O)NCCCN4CCOCC4)nn3)cc2NC(=O)c2cnc(C#N)cc2C(F)(F)F)CC1 [Compound 13] | 23.7
